Assay results taken from patent publication US8853258B2, “C-linked hydroxamic acid derivatives useful as antibacterial agents” (Pfizer Inc., priority 2009, dated 2014).
Where two headings read alike, the source gives them in different places.

Tests used:
Type in all cases: cell-based
[1] = test system: Escherichia coli EC-1: VOGEL, mouse virulent; assay: MIC determination (CLSI), EC-1
In short: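 E. coli Vogel, a mouse-virulent strain (EC-1), was tested. MICs were set by dilution susceptibility testing per CLSI standards M7-A7/M100-S18.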

[2] = test system: Klebsiella pneumoniae: Ciprofloxacin-resistant isolate, ESBL, clinical isolate (KP-3700); assay: MIC determination (CLSI), KP-3700
In short: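 Strain KP-3700, a clinical isolate producing extended-spectrum β-lactamases and resistant to ciprofloxacin, was tested. Minimum inhibitory concentrations determined via CLSI dilution methodology (M7-A7; M100-S18).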

[3] = test system: Acinetobacter baumanii/haemolyticus: Multidrug-resistant clinical isolate (AB-3167); assay: MIC determination (CLSI), AB-3167
In short: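 Multidrug-resistant clinical isolate AB-3167 (A. baumannii/haemolyticus) tested for minimum inhibitory concentration following CLSI dilution susceptibility standards M7-A7 and M100-S18.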

[4] = test system: Pseudomonas aeruginosa UI-18: Wild-type (PA-7); assay: MIC determination (CLSI), PA-7
In short: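 Wild-type P. aeruginosa UI-18 tested for minimum inhibitory concentration. Broth/agar dilution following CLSI standards (M7-A7, M100-S18).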

[5] = Escherichia coli EC-1 VOGEL, mouse virulent
[6] = Acinetobacter baumanii/haemolyticus multidrug-resistant clinical isolate AB-3167
[7] = Pseudomonas aeruginosa UI-18 wild-type PA-7
[8] = Acinetobacter baumanii/haemolyticus AB-3167
[9] = Pseudomonas aeruginosa UI-18 (PA-7)

Row | Structure (SMILES) | EC-1 MIC [1, 5] | KP-3700 MIC [2] | AB-3167 MIC [3, 6] | PA-7 MIC [4, 7] [µg/mL] | KP-3700 MIC ([2]; Klebsiella pneumoniae ciprofloxacin-resistant ESBL clinical isolate KP-3700) [µg/mL] | EC-1 MIC ([1]; Escherichia coli EC-1) [µg/mL] | AB-3167 MIC [3, 8] | PA-7 MIC [4, 9] [µg/mL]
1 | COc1cccc(-c2ccc(CCC(C)(C(=O)NO)S(C)(=O)=O)cn2)c1F (centres unmarked) [Example 134] | 4 µg/mL | 16 µg/mL | ≧64 mg/L | 4 |  |  |  | 
2 | COc1ccc(CCC(C)(C(=O)NO)S(C)(=O)=O)cc1 (centres unmarked) [Example 135] | ≧64 mg/L | ≧64 mg/L | ≧64 mg/L | 32 |  |  |  | 
3 | Cc1cc(-c2ccc(CCC(C)(C(=O)NO)S(C)(=O)=O)cc2)ccc1O (centres unmarked) [Example 137] | 16 µg/mL | 32 µg/mL | ≧64 mg/L | 4 |  |  |  | 
4 | COc1cc(-c2ccc(CCC(C)(C(=O)NO)S(C)(=O)=O)cc2)ccc1O (centres unmarked) [Example 139] | 16 µg/mL | ≧64 mg/L | ≧64 mg/L | 16 |  |  |  | 
5 | Cc1cc(O)ccc1-c1ccc(CCC(C)(C(=O)NO)S(C)(=O)=O)cc1 (centres unmarked) [Example 140] | 32 µg/mL | ≧64 mg/L | ≧64 mg/L | 4 |  |  |  | 
6 | COc1cc(O)ccc1-c1ccc(CCC(C)(C(=O)NO)S(C)(=O)=O)cc1 (centres unmarked) [Example 141] | ≧64 mg/L | ≧64 mg/L | ≧64 mg/L | 32 |  |  |  | 
7 | CC(CCc1ccc(-c2ccc(C#N)c(O)c2)cc1)(C(=O)NO)S(C)(=O)=O (centres unmarked) [Example 142] | ≧64 mg/L | ≧64 mg/L | ≧64 mg/L | 32 |  |  |  | 
8 | CC(CCc1ccc(-c2ccccc2O)nc1)(C(=O)NO)S(C)(=O)=O (centres unmarked) [Example 143] | 4 µg/mL | 32 µg/mL | ≧64 mg/L | 4 |  |  |  | 
9 | CC(CCc1ccc(-c2ccc(OCCO)cc2F)cc1)(C(=O)NO)S(C)(=O)=O (centres unmarked) [Example 144] | 1 µg/mL | 4 µg/mL | ≧64 mg/L | 1 |  |  |  | 
10 | CC(CCc1ccc(-c2ccc(OCCO)c(F)c2)cc1)(C(=O)NO)S(C)(=O)=O (centres unmarked) [Example 145] | 2 µg/mL | 4 µg/mL | ≧64 mg/L | 1 |  |  |  | 
11 | CC(C)(O)Cc1ccc(-c2ccc(CCC(C)(C(=O)NO)S(C)(=O)=O)cc2)cc1 (centres unmarked) [Example 146] | 8 µg/mL | 32 µg/mL | ≧64 mg/L | 8 |  |  |  | 
12 | CC(CCc1ccc(-c2ccc(OCCO)c(F)c2F)cc1)(C(=O)NO)S(C)(=O)=O (centres unmarked) [Example 147] | 2 µg/mL | 8 µg/mL | 32 µg/mL | 1 |  |  |  | 
13 | CC(CCc1ccc(-c2ccc(OCCO)c(C#N)c2)cc1)(C(=O)NO)S(C)(=O)=O (centres unmarked) [Example 148] | 16 µg/mL | ≧64 mg/L | ≧64 mg/L | 16 |  |  |  | 
14 | CC(CCc1ccc(-c2ccc(O)cc2F)cc1)(C(=O)NO)S(C)(=O)=O (centres unmarked) [Example 149] | 2 µg/mL | 8 µg/mL | ≧64 mg/L | 1 |  |  |  | 
15 | CC(CCc1ccc(-c2cc(F)c(OCCO)c(F)c2)cc1)(C(=O)NO)S(C)(=O)=O (centres unmarked) [Example 150] | 2 µg/mL | 8 µg/mL | 32 µg/mL | 2 |  |  |  | 
16 | Cc1cc(OCCO)ccc1-c1ccc(CCC(C)(C(=O)NO)S(C)(=O)=O)cc1 (centres unmarked) [Example 151] | 8 µg/mL | 32 µg/mL | ≧64 mg/L | 4 |  |  |  | 
17 | Cc1cc(-c2ccc(CCC(C)(C(=O)NO)S(C)(=O)=O)cc2)ccc1CCO (centres unmarked) [Example 152] | 4 µg/mL | 16 µg/mL | ≧64 mg/L | 2 |  |  |  | 
18 | CC(C)(O)c1ccccc1-c1ccc(CCC(C)(C(=O)NO)S(C)(=O)=O)cc1 (centres unmarked) [Example 153] | ≧64 mg/L | ≧64 mg/L | ≧64 mg/L | 32 |  |  |  | 
19 | CC(CCc1ccc(-c2cccc(O)c2F)cc1)(C(=O)NO)S(C)(=O)=O (centres unmarked) [Example 154] | 4 µg/mL |  | ≧64 mg/L | 1 | 8 |  |  | 
20 | CC(CCc1ccc(-c2ccc(CCO)cc2F)cc1)(C(=O)NO)S(C)(=O)=O (centres unmarked) [Example 155] | 2 µg/mL | 8 µg/mL | ≧64 mg/L | 1 |  |  |  | 
21 | Cc1cc(CCO)ccc1-c1ccc(CCC(C)(C(=O)NO)S(C)(=O)=O)cc1 (centres unmarked) [Example 156] | 16 µg/mL | 8 µg/mL | 16 µg/mL | 8 |  |  |  | 
22 | CC(CCc1ccc(-c2ccc(C#N)cc2)cn1)(C(=O)NO)S(C)(=O)=O (centres unmarked) [Example 163] | 32 µg/mL | 32 µg/mL | ≧64 mg/L | 8 |  |  |  | 
23 | CC(CCc1ccc(-c2ccc(F)cc2)cn1)(C(=O)NO)S(C)(=O)=O (centres unmarked) [Example 164] | 32 µg/mL | 32 µg/mL | ≧64 mg/L | 4 |  |  |  | 
24 | C[C@@](CCc1ccc(-c2cc3ccccc3o2)cc1)(C(=O)NO)S(C)(=O)=O [Example 214] |  | 4 µg/mL |  |  |  | 0.125 | 8 µg/mL | 8
25 | CC(C)(O)c1ccc(-c2ccc(CCC(C)(C(=O)NO)S(C)(=O)=O)cc2)cc1 (centres unmarked) [Example 230] |  | 32 µg/mL |  |  |  | 8 | ≧64 mg/L | 8
26 | CC(CCc1ccc(-c2ccc(C[C@H](N)C(=O)O)cc2)cc1)(C(=O)NO)S(C)(=O)=O (some centres unmarked) [Example 231] |  | ≧64 mg/L |  |  |  | 32 | ≧64 mg/L | 16
